Measured values from patent US9718802B2, “Crystal form of dabigatran etexilate mesylate and preparation method and use thereof” (Zhejiang Hisun Pharmaceutical Co., Ltd., priority 2014, dated 2017).
“Also recorded” adds a separate entry of the source.

Legend:
Assay type in all cases: physicochemical
[1] = Test 3 stability data under −20° C. for 6 months (liquid chromatography); conditions: in % (unit assumed)
Procedure: (§1) Liquid chromatography test conditions are: chromatographic column is Merck Purospher®STAR RP-18 endcapped 250×4.6 mm, 5 μm; mobile phase A: acetonitrile, mobile phase B: 4 ml phosphoric acid added in 1 L water, the pH is adjusted to 3.5 by triethylamine; detecting wavelength: 310 nm; flow rate: 1 ml/min; sample load: 10 μl; column temperature: 30° C., liquid chromatography conditions are shown in table 4:
(§2) The inventor has tested the chemical stability of the crystal form M and crystal form N under normal temperature, cold storage and freezing conditions and compared the chemical stability with crystal form I, crystal form II and semihydrate crystal form, see tests 1-3. In the tests, crystal form I, crystal form II and semihydrate crystal form are all prepared according to the method disclosed in patent document U.S. Pat. No. 7,932,273B2.
Test 3 stability data under −20° C. for 6 months (see table 7)

[2] = Test 2 stability data under 5° C. for 6 months (liquid chromatography); conditions: for Major peak: 5° C., in % (unit assumed); for storage stability: cold storage and freezing conditions
Procedure: as §1, §2
Test 2 stability data under 5° C. for 6 months (see table 6)

[3] = Test 1 stability data under 25° C. for 6 months (liquid chromatography); conditions: for Major peak: 25° C., in % (unit assumed); for chemical stability compared with crystal form I, crystal form II and the semihydrate crystal form: normal temperature and cold storage conditions
Procedure: as §1, §2

[4] = Crystal form of samples after 6 months stability tests under different temperature; conditions: 6 months under different temperature
[5] = Test 4 stability of crystal form N in 95% ethanol solution (XRD); conditions: stirred for 3, 4 and 5 hours
Procedure: In the following examples and tests, the powder X-ray diffractometer and the test conditions are: X-ray diffractomer model Rigaku D/max-2200 Cu target; operation method: scan rate 4°/min, scan width 0.01°.
Test 4 the stability in formulation of crystal form N
This indicate that the crystal form N is stable in the 95% ethanol solution, therefore, it has great stability in the related formulation processes.

| Major peak ([1]; 1 month) | Major peak ([1]; 2 months) | Major peak ([1]; 3 months) | Major peak ([1]; 4 months) | Major peak ([1]; 5 months) | Major peak ([1]; 6 months) | Major peak ([2]; 0 month) | Major peak ([2]; 1 month) | Major peak ([2]; 2 months) | Major peak ([2]; 3 months) | Major peak ([2]; 4 months) | Major peak ([2]; 5 months) | Major peak ([2]; 6 months) | Major peak ([3]; 0 month) | Major peak ([3]; 1 month) | Major peak ([3]; 2 months) | Major peak ([3]; 3 months) | Major peak ([3]; 4 months) | Major peak ([3]; 5 months) | Major peak ([3]; 6 months) | SMILES | further results |
| --- | --- | --- | --- | --- | --- | --- | --- | --- | --- | --- | --- | --- | --- | --- | --- | --- | --- | --- | --- | --- | --- |
| 99.834 | 99.833 | 99.836 | 99.839 | 99.840 | 99.836 | 99.828 | 99.827 | 99.830 | 99.826 | 99.831 | 99.827 | 99.832 | 99.847 | 99.707 | 99.631 | 99.587 | 99.447 | 99.334 | 99.254 | CCCCCCOC(=O)/N=C(/N)c1ccc(NCc2nc3cc(C(=O)N(CCC(=O)OCC)c4ccccn4)ccc3n2C)cc1.CS(=O)(=O)O [Semihydrate crystal form, 3-[(2-{[4-(hexaoxycarbonylamino-imino-methyl)-phenylamino]-methyl}-1-methyl-1H-benzimidazole-5-carbonyl)-pyridine-2-yl-amino-]-ethyl propionate-mesylate] | – |
| 99.723 | 99.726 | 99.734 | 99.733 | 99.734 | 99.733 | 99.660 | 99.659 | 99.655 | 99.652 | 99.650 | 99.650 | 99.649 | 99.701 | 99.631 | 99.618 | 99.601 | 99.580 | 99.572 | 99.536 | CCCCCCOC(=O)/N=C(/N)c1ccc(NCc2nc3cc(C(=O)N(CCC(=O)OCC)c4ccccn4)ccc3n2C)cc1.CS(=O)(=O)O [Crystal form N, 3-[(2-{[4-(hexaoxycarbonylamino-imino-methyl)-phenylamino]-methyl}-1-methyl-1H-benzimidazole-5-carbonyl)-pyridine-2-yl-amino-]-ethyl propionate-mesylate] | stability in 95% ethanol solution (X-Ray powder diffractograms) [5]: not changed within 5 hours; also recorded: very good stability; storage stability [2]: can be stored stable for a long time; crystal form of samples after stability tests [4]: not changed; chemical stability compared with crystal form I, crystal form II and the semihydrate crystal form [3]: better chemical stability |

The next lines start with the compound.

| SMILES | Major peak ([1]; 1 month) | Major peak ([1]; 2 months) | Major peak ([1]; 3 months) | Major peak ([1]; 4 months) | Major peak ([1]; 5 months) | Major peak ([1]; 6 months) | Major peak ([2]; 0 month) | Major peak ([2]; 1 month) | Major peak ([2]; 2 months) | Major peak ([2]; 3 months) | Major peak ([2]; 4 months) | Major peak ([2]; 5 months) | Major peak ([2]; 6 months) | Major peak ([3]; 0 month) | Major peak ([3]; 1 month) | Major peak ([3]; 2 months) | Major peak ([3]; 3 months) | Major peak ([3]; 4 months) | Major peak ([3]; 5 months) | Major peak ([3]; 6 months) | further results |
| --- | --- | --- | --- | --- | --- | --- | --- | --- | --- | --- | --- | --- | --- | --- | --- | --- | --- | --- | --- | --- | --- |
| CCCCCCOC(=O)/N=C(/N)c1ccc(NCc2nc3cc(C(=O)N(CCC(=O)OCC)c4ccccn4)ccc3n2C)cc1.CS(=O)(=O)O [Crystal form II, 3-[(2-{[4-(hexaoxycarbonylamino-imino-methyl)-phenylamino]-methyl}-1-methyl-1H-benzimidazole-5-carbonyl)-pyridine-2-yl-amino-]-ethyl propionate-mesylate] | 99.630 | 99.633 | 99.634 | 99.630 | 99.632 | 99.632 | 99.631 | 99.630 | 99.643 | 99.640 | 99.641 | 99.598 | 99.592 | 99.646 | 99.493 | 99.408 | 99.290 | 99.069 | 99.029 | 98.911 | – |
| CCCCCCOC(=O)/N=C(/N)c1ccc(NCc2nc3cc(C(=O)N(CCC(=O)OCC)c4ccccn4)ccc3n2C)cc1.CS(=O)(=O)O [Crystal form M, 3-[(2-{[4-(hexaoxycarbonylamino-imino-methyl)-phenylamino]-methyl}-1-methyl-1H-benzimidazole-5-carbonyl)-pyridine-2-yl-amino-]-ethyl propionate-mesylate] | 99.722 | 99.728 | 99.737 | 99.737 | 99.739 | 99.737 | 99.654 | 99.650 | 99.648 | 99.651 | 99.649 | 99.649 | 99.648 | 99.711 | 99.632 | 99.614 | 99.595 | 99.582 | 99.574 | 99.541 | storage stability [2]: can be stored stable for a long time; crystal form of samples after stability tests [4]: not changed; chemical stability compared with crystal form I, crystal form II and the semihydrate crystal form [3]: better chemical stability |
| CCCCCCOC(=O)/N=C(/N)c1ccc(NCc2nc3cc(C(=O)N(CCC(=O)OCC)c4ccccn4)ccc3n2C)cc1.CS(=O)(=O)O [Crystal form I, 3-[(2-{[4-(hexaoxycarbonylamino-imino-methyl)-phenylamino]-methyl}-1-methyl-1H-benzimidazole-5-carbonyl)-pyridine-2-yl-amino-]-ethyl propionate-mesylate] | 99.693 | 99.694 | 99.690 | 99.692 | 99.691 | 99.692 | 99.676 | 99.655 | 99.651 | 99.652 | 99.651 | 99.649 | 99.643 | 99.690 | 99.604 | 99.574 | 99.468 | 99.308 | 99.309 | 99.220 | – |
